Results: paper PMC3696112 (PLoS ONE, 2013)

Target: T1, Ech (enoyl-CoA hydratase/aldolase) (Streptomyces sp. V-1, UniProt S5LPF1)
T1 construct: ATCC 39116
T1 sequence (S5LPF1 1-287): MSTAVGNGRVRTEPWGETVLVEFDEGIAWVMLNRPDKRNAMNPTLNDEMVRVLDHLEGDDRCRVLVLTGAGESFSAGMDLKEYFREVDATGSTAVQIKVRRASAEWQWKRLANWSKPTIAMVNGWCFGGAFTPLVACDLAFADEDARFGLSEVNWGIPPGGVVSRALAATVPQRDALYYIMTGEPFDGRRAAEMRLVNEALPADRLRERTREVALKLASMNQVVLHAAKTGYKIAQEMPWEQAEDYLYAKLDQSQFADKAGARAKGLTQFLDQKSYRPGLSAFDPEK
Assay: coupled assay with purified Fcs, GC analysis (qualitative)
Format: biochemical
Settings: feruloyl-CoA made in situ from 0.7 mM ferulic acid by Fcs; 2 mM ATP, 0.4 mM CoA, 2.5 mM MgCl2, 100 mM potassium phosphate pH 7.0

## COc1cc(C=O)ccc1O [vanillin, 4-hydroxy-3-methoxybenzaldehyde]
  coupled assay with purified Fcs, GC analysis (qualitative): production of vanillin, catalyzed by Ech, were observed and analyzed qualitatively from the GC spectrum
